In publication PMC7317715, “Discovery of a novel fluorescent chemical probe suitable for evaluation of neuropilin‐1 binding of small molecules” (Drug Development Research, 2020):
Where two headings read alike, the source gives them in different places. Bridge positions count the residues as written; N and C are the ends. Peptide text beside a SMILES is read from it.

B1: NRP1 b1 b1 domain (protein)
chain: FKCMEALGMESGEIHSDQITASSQYSTNWSAERSRLNYPENGWTPGEDSYREWIQVDLGLLRFVTAVGTQGAISKETKKKYYVKTYKIDVSSNGEDWITIKEGNKPVLFQGNTNPTDVVVAVFPKPLITRFVRIKPATWETGISMRFEVYGCKIT

Columns and labels:
NRP1 b1 [1] = biological target: T1, NRP1 b1 (Homo sapiens, UniProt O14786); assay: FP competition experiment with DS108 probe; type: binding; conditions: for IC50: FP competition, DS108 0.75 μM, NRP1 b1 7.5 μM, PBS‐P buffer; for Ki: calculated from FP competition IC50 using kinetic equations (Nikolovska‐Coleska et al., 2004)
T1 construct: Ligands were evaluated against the NRP1‐b1 domain
T1 sequence (O14786 275-424 limits assumed): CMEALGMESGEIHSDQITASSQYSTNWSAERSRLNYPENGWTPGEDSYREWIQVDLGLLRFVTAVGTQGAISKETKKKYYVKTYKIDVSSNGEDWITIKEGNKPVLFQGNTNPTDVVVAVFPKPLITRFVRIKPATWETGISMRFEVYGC
Procedure: Competition experiments: FP samples were prepared in the following order—ligand in PBS‐P buffer (20 μl), NRP1‐b1 protein ([…], 20 μl) in PBS‐P buffer, and DS108 probe (1,500 nM, 40 μl) in PBS‐P buffer. FP was measured and normalized to experiment controls (buffer + probe, buffer + probe + protein) using a BMG Labtech PHERAstar® plate reader (filter settings: 485 nm [excitation] and 520 nm [emission]). Background FP was blanked using a PBS‐P buffer only control.
Data processing: raw data were processed using OriginPro curve fitting software to obtain the IC50s and error values shown. A dose–response curve fitting model was utilized for the competition experiments. A web based IC50‐to‐Ki converter that computes Ki values from experimentally determined IC50 values was employed (Cer, Mudunuri, Stephens, & Lebeda, 2009) (https://bioinfo-abcc.ncifcrf.gov/IC50_Ki_Converter/index.php) Each experiment was conducted in triplicate and repeated two times. The statistical reproducibility of this assay was evaluated using the z factor equation (Scheme 2).

NRP1 [2] = conditions: NRP1 inhibition using bt‐VEGF165 binding; ref Jia et al., 2006; read-out: Literature IC50; cited from earlier work
NRP1‐b1 domain = biological target: T2, NRP1‐b1 domain (Homo sapiens, UniProt O14786); assay: SPR binding of fluorescent probes to immobilised NRP1-b1; conditions: for Kd: NRP1‐b1 on CM5 chip, 3% DMSO in PBS‐P, 1:1 binding model, read-out: KD (μM, affinity); for Observed Rmax (% of theoretical): experimentally observed Rmax as percentage of theoretical Rmax (quality control)
T2 construct: Ligands were evaluated against the NRP1‐b1 domain
T2 sequence (O14786 275-424 limits assumed): T1 sequence (O14786 275-424 limits assumed)
Procedure: All SPR analysis was performed on a BIAcore T200 system using series S CM5 sensor chips. The […] SPR is effectively a stop‐flow instrument, and dissociation from the immobilized protein is initiated by the absence of analyte (ligand) when buffer alone is perfused, this setup allows the determination of on and off rates and equilibrium binding constants. Relatively high DMSO concentrations are normal for SPR experiments to limit solubility problems and minimize nonspecific aggregation. Extensive DMSO controls are included and automatically subtracted from the sensorgrams. Sensorgrams were double referenced by subtracting the response on a reference flow cell and a blank sample. Ligands were evaluated against the NRP1‐b1 domain. NRP1‐b1 was covalently attached to a CM5 chip via amine coupling (Powell et al., 2018) with a surface density of 2,000–3,000 RU. Binding of novel fluorescent probes (0.4–100 μM) were analyzed by multicycle sequential injections (30–120 s association time) followed by undisturbed dissociation (30–60 s). A regeneration step was not used. Peptide stocks were dissolved in dimethyl sulfoxide (DMSO), and the final sample solutions for kinetic affinity experiments contained 3% DMSO in 1× phosphate‐buffered saline P20 buffer (PBS‐P, Cat no 28995084, GE Healthcare Ltd.). DMSO solvent effects were corrected for with eight calibration solutions ([…] in PBS‐P). Equilibrium constants (KD) were calculated using either kinetic or affinity models, assuming simple 1:1 (Langmuir) binding. Data processing and analysis were performed using BIAevaluation and OriginPro software. The theoretical Rmax (the maximal feasible signal between a ligand—analyte pair) for each compound/protein pair was calculated using Scheme 1 (Marquart, 2017).
The experimentally observed Rmax was then calculated as a percentage of the theoretical Rmax as a quality control measure.

NRP1 b1 [3] = biological target: T1, NRP1 b1; assay: FP saturation binding / protein titration (dynamic range); conditions: for Kd: KD derived from the 50% signal maximum; for Dynamic window (mP): FP, probe + NRP1‐b1 vs probe only, probe and NRP‐b1 conc per probe as in Table 2
Procedure: Initial experiments were performed using PBS‐P buffer with 3% DMSO in a final volume of 80 μl. The reaction plates or tubes were kept on ice during pipetting.
Saturation binding: dynamic range and protein titration experiments were performed at probe concentrations selected with guidance from in‐house SPR analysis, literature KD of the untagged compound, and an FP technical resource guide (Invitrogen, 2006). The NRP‐b1 concentrations ranged from 10 nM to 30 μM.

NRP1 [4] = test system: NRP1; design: method as in Powell et al., 2018; conditions: ref Powell et al., 2018; cited from earlier work
5-Flu-RPARPAR [5] = assay: SPR
5-Flu-RPARPAR [6] = biological target: 5-Flu-RPARPAR

Molecule	IC50 (NRP1 b1 [1]) [µM]	Ki (NRP1 b1 [1]) [µM]	Kd (NRP1‐b1 domain) [µM]	Observed Rmax (% of theoretical) (NRP1‐b1 domain) [%]	Kd (NRP1 b1 [3]; FP protein titration) [µM]	Dynamic window (mP) (NRP1 b1 [3])	also measured
CC(C)C[C@@H]1NC(=O)[C@H](CCC(N)=O)NC(=O)[C@H](CCCNC(=N)N)NC(=O)[C@H](C)NC(=O)[C@H](CCCCN)NC(=O)[C@@H]2CSSC[C@@H](C(=O)N[C@@H](CC(=O)O)C(=O)N[C@@H](CCCCN)C(=O)N3CCC[C@H]3C(=O)N[C@@H](CCCNC(=N)N)C(=O)N[C@@H](CCCNC(=N)N)C(=O)O)NC(=O)[C@H](CCCNC(=N)N)NC(=O)[C@H](CSSC[C@H](NC(=O)[C@@H](N)CO)C(=O)N[C@@H](CCCCN)C(=O)N[C@@H](CC(N)=O)C(=O)N[C@@H]([C@@H](C)O)C(=O)N[C@@H](CC(=O)O)C(=O)N[C@@H](CO)C(=O)N[C@@H](CCCNC(=N)N)C(=O)N2)NC(=O)[C@H]([C@@H](C)O)NC(=O)[C@H](CCCNC(=N)N)NC(=O)[C@H](CCC(=O)O)NC(=O)[C@H](CC(N)=O)NC(=O)[C@H](CC(C)C)NC(=O)[C@H](CCC(=O)O)NC1=O [EG03287] (H-SCKNTDSRCKARQLELNERTCRCDKPRR-OH; disulfide 2-21, 9-23; N-terminus and C-terminus assumed)	5.77 ± 0.87	2.47					IC50 (NRP1 [2]): 1.2 µM
N=C(N)NCCC[C@H](NC(=O)c1sccc1NS(=O)(=O)c1cc(-c2ccc(CNC(=O)CCOCCOCCOCCOCCOCc3cn(CCCNC(=O)c4ccc5c(c4)C(=O)OC54c5ccc(O)cc5Oc5cc(O)ccc54)nn3)cc2)cc2c1OCC2)C(=O)O [probe 4, (3‐((5‐(4‐(1‐(1‐(3‐(3′,6′‐dihydroxy‐3‐oxo‐3H‐spiro(isobenzofuran‐1,9′‐xanthene)‐5‐carboxamido)propyl)‐1H‐1,2,3‐triazol‐4‐yl)‐17‐oxo‐2,5,8,11,14‐pentaoxa‐18‐azanonadecan‐19‐yl)phenyl)‐2,3‐dihydrobenzofuran)‐7‐sulfonamido)thiophene‐2‐carbonyl)‐L‐arginine]			3.3 ± 0.2	43	0.62 ± 0.098	5.2	
N=C(N)NCCC[C@H](NC(=O)c1sccc1NS(=O)(=O)c1cc(-c2ccc(CNC(=O)CCOCCOCCOCCNC(=O)c3ccc(-c4c5ccc(=O)cc-5oc5cc(O)ccc45)c(C(=O)O)c3)cc2)cc2c1OCC2)C(=O)O [probe 3, (S)‐5‐((1‐(4‐(7‐(N‐(2‐((1‐carboxy‐4‐guanidinobutyl)carbamoyl)thiophen‐3‐yl)sulfamoyl)‐2,3‐dihydrobenzofuran‐5‐yl)phenyl)‐3‐oxo‐6,9,12‐trioxa‐2‐azatetradecan‐14‐yl)carbamoyl)‐2‐(6‐hydroxy‐3‐oxo‐3H‐xanthen‐9‐yl)benzoic acid]			24.6 ± 6.3	77	4.61 ± 0.19	30.7	
RPARPAR [reference compound]			69 ± 22	60.61		22.6	Kd (NRP1 b1 [3]; […]): 1.88 ± 1.4 µM
N=C(N)NCCC[C@H](NC(=O)c1sccc1NS(=O)(=O)c1cc(-c2ccc(CN)cc2)cc2c1OCC2)C(=O)O [EG01377]	16.8 ± 1.25	7.39					NRP1 antagonistic properties (NRP1 [4]): submicromolar; selectivity for NRP1 over NRP2 receptor (NRP1 [4]): selective for NRP1
B1							Kd (5-Flu-RPARPAR [5]): 69 µM; Kd (5-Flu-RPARPAR [6]): 1.88 µM
